Measurements taken from ChEMBL document CHEMBL3120129, “Enantiomeric atropisomers inhibit HCV polymerase and/or HIV matrix: characterizing hindered bond rotations and target selectivity” (J Med Chem, 2014).

Legend:
[1] = Inhibition of HIV1 NL-4.3 matrix (1 to 132) expressed in BL21(DE3) cells using [PI(4,5)P2]2 as substrate after 30 mins by fluorescence polarization assay; parameters: species or system Human immunodeficiency virus 1
[2] = Inhibition of HCV genotype 1b hexa-histidine-tagged NS5B polymerase expressed in baculovirus infected cell system; parameters: species or system Hepatitis C virus subtype 1b
[3] = Apparent half life of the compound assessed as atropisomer interconversion by HPLC analysis; format: physicochemical; conditions: read-out: t1/2(app)
[4] = system: Human immunodeficiency virus 1; test: Antiviral activity against HIV1 NL-4.3; format: functional, organism-based; conditions: Human immunodeficiency virus 1, NL-4.3
[5] = system: Hepatitis C virus; test: Antiviral activity against HCV genotype 1b by HCV replicon assay; format: functional, organism-based, Hepacivirus hominis

In the case of `CC(C)N(c1ccc(Oc2ccccc2C(F)(F)F)cc1C(=O)O)C(=O)[C@H]1CC[C@H](C)CC1`, the IC50 [1] is reported as > 175 µM and the IC50 [2] is reported as 0.19 µM.

In the case of `C[C@H]1CC[C@H](C(=O)Nc2ccc(Oc3ccccc3C(F)(F)F)cc2C(=O)O)CC1`, the IC50 [1] is reported as > 95 µM and the IC50 [2] is reported as 15 µM.

For `COC[C@H](C)N(c1ccc(Oc2ncc(CCn3nccn3)cc2C(F)(F)F)c(F)c1)C(=O)[C@H]1CC[C@H](C)CC1`, the IC50 [2] was 56 µM.

For `Cc1cc(OCc2cnc(Oc3ccc(N(C(=O)[C@H]4CC[C@H](C)CC4)C(C)C)c(C(=O)O)c3)c(C(F)(F)F)c2)c2ccccc2n1`, the half-life [3] was 1.15 h.

With `COc1ccc(C(=O)Nc2ccc(Oc3ccc(N(C(=O)[C@H]4CC[C@H](C)CC4)C(C)C)c(C(=O)O)c3)cc2)cc1` the IC50 [1] was 3.4 µM, the EC50 [4] was 2.8 µM and the IC50 [2] was 0.63 µM. It also gave an EC50 [5] of 0.95 µM.

`CC(C)N(c1cc(F)c(Oc2ncc(CCn3nccn3)cc2C(F)(F)F)cc1C(=O)O)C(=O)[C@H]1CC[C@H](C)CC1` showed an IC50 [2] of 0.068 µM.

With `CN(c1ccc(Oc2ccccc2C(F)(F)F)cc1C(=O)O)C(=O)[C@H]1CC[C@H](C)CC1` the IC50 [1] was > 100 µM, the IC50 [2] was 0.2 µM and the EC50 [5] was 1.1 µM.

For `COC[C@H](C)N(c1cc(F)c(Oc2ncc(CCn3nccn3)cc2C(F)(F)F)cc1C(=O)O)C(=O)[C@H]1CC[C@H](C)CC1`, the IC50 [2] was 0.068 µM.
